How the values were obtained:
[1] = target: T1, Calpain I (Homo sapiens, UniProt P07384); experiment: Calpain I 14C-methylated casein proteolysis (Table 1A); type: biochemical
T1 sequence (P07384 1-714): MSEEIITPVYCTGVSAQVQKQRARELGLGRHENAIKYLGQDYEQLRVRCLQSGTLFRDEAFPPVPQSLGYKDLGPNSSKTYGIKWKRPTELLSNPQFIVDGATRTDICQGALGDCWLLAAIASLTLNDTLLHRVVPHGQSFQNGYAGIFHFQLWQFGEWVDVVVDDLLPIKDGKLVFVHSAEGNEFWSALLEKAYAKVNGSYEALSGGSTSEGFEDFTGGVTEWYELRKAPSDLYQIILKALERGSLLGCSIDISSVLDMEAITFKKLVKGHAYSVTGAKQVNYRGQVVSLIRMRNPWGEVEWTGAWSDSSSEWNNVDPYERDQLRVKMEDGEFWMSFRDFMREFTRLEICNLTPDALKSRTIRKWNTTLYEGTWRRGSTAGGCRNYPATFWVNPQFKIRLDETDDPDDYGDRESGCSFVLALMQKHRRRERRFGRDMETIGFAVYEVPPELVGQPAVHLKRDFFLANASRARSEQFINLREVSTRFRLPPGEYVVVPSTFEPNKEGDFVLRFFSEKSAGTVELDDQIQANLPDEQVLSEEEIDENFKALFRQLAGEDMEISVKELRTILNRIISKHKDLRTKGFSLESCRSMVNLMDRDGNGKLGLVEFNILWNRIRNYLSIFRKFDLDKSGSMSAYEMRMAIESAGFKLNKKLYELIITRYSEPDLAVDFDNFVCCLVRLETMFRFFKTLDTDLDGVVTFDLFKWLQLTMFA
T1 sequence (P04632 1-268 partner): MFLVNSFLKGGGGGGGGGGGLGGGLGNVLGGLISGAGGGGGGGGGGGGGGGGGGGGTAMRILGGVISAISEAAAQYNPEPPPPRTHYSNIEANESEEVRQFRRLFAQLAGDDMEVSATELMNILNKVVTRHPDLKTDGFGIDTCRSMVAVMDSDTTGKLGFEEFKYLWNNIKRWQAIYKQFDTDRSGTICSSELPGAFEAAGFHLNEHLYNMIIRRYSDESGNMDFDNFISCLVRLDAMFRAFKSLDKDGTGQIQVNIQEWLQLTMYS

[2] = target: T2, Calpain II (Homo sapiens, UniProt P17655); experiment: Calpain II 14C-methylated casein proteolysis (Table 1A); type: biochemical
T2 construct: from tissue; purified by a cited method
T2 sequence (P17655 1-700): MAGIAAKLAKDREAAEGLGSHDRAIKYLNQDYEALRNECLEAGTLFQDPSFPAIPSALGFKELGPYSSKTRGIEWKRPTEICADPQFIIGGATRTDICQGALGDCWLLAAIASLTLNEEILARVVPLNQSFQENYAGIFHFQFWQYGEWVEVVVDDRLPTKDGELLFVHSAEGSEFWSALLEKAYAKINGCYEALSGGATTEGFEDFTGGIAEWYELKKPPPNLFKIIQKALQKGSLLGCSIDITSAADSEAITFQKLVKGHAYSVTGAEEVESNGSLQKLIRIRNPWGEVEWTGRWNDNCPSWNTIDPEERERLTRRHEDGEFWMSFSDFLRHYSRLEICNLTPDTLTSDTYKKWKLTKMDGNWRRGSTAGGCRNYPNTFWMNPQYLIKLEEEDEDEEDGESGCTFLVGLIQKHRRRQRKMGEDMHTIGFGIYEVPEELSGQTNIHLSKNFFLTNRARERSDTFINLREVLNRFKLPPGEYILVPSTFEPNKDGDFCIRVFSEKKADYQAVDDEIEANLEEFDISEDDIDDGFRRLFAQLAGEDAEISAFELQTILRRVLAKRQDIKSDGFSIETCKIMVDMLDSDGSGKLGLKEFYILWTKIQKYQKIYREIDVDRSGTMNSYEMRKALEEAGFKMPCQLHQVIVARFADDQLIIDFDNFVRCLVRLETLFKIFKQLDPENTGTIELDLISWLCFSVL
T2 sequence (P04632 1-268 partner): T1 sequence (P04632 1-268 partner)
Experimental: The isocoumarins are irreversible inhibitors of Calpain. We obtained IC50 values for a variety of these Calpain Inhibitors as a kinetic analysis of these compounds.
Calpains I and II were purified by the method of (Yoshimura, et al. 1983). (Kitahara 1984) provides an alternative purification scheme. Calpain II may alternatively be purchased from Sigma Chemical Co. as "Calcium Activated Neutral Protease." In this assay, purified Calpain was incubated with ^14 C-methylated casein in the presence of various Heterocyclic Compounds and the amount of acid-soluble radioactivity released by the action of Calpain was measured.

Compound	IC50 [1]	IC50 [2]
N=C(N)SCCCOc1oc(=O)c2ccccc2c1Cl [CiTprOIC, 4-chloro-3-(3-isothiureidopropoxy)isocoumarin]	100 µM	70 µM
N=C(N)SCCCOc1oc(=O)c2cc(N)ccc2c1Cl [NH2 -CiTPrOIC (ACITIC), 7-amino-4-chloro-3-(3-isothiureidopropoxy)isocoumarin]	10 µM	120 µM

Reference: patent publication US5444042A, “Method of treatment of neurodegeneration with calpain inhibitors” (Cortex Pharmaceuticals, priority 1994, dated 1995)
